The target in data set [1] is T1, Z-alpha-1-antitrypsin (Z-A1AT) (Homo sapiens, UniProt P01009, E366K/V237A).
T1 construct: Z-alpha-1-antitrypsin was purified from human plasma; from tissue; host or cells: human plasma of ZZ homozygous donors
Nature of the data set: Inhibition of Z-alpha-1-antitrypsin polymerisation TR-FRET assay. The data set is classed as biochemical. The settings on record: mean, 5 nM Z-A1AT, 72 hours at 37° C. An excerpt:
The potencies of the compounds of the invention for inhibition of Z-alpha-1-antitrypsin (Z-A1AT) polymerisation can be determined by a time-resolved fluorescence energy transfer (TR-FRET) assay performed on purified Z-A1AT as described herein. […] Mean activity data for the assay described below for compounds 1-4:
Inhibition of Z-Alpha-1-Antitrypsin Polymerisation Assay Protocol
Z-alpha-1-antitrypsin was purified from human plasma of donors homozygous for the Z-A1AT form. The purification was performed according to a published protocol (Lomas et al. Biochemistry 1993; 32:500-508) involving ammonium sulphate precipitation, thiol exchange fractionation, and anion exchange fractionation.
Purified Z-A1AT was diluted to 5 nM in PBS buffer with 0.01% Tween-20 and mixed with different concentrations of inhibitor compounds dissolved in DMSO, in 384-well assay plates. Following incubation for 72 hours at 37° C., the amount of Z-A1AT polymer was detected using a time-resolved fluorescence resonance energy transfer (TR-FRET) assay format, by adding an antibody detection mix to the assay plates. The detection mix contained an A1AT-polymer specific monoclonal antibody (Miranda et al. Hepatology 2010; 52: 1078-1088), Terbium-labelled anti-mouse antibody, a polyclonal rabbit anti-A1AT antibody, and an Alexa488-labelled anti-rabbit antibody. TR-FRET data were normalised to controls (DMSO vehicle control giving 0% inhibition, saturating concentrations of an active compound giving 100% inhibition), and IC50 values were derived by fitting 4-parameter logistic curves to the normalised data.
An antibody-based time-resolved fluorescence resonance energy transfer (TR-FRET) assay was used to monitor the polymerisation of 5 nM Z α1-antitrypsin following incubation with varying concentrations of compounds at 37° C. for 72 hours. This assay used the 2C1 monoclonal antibody that is specific to pathological polymers of α1-antitrypsin (Miranda et al. Hepatology 2010; 52: 1078-1088), a polyclonal antibody that binds to all forms of α1-antitrypsin, an anti-mouse IgG fluorescence donor (Eu-W1024) and an anti-rabbit IgG acceptor (APC).
Background: In TR-FRET formats the signal depends on donor and acceptor labels being close together.

A further data set addresses T2, M α1-antitrypsin (Homo sapiens, UniProt P01009).
T2 construct: Alpha1-antitrypsin was purified from the plasma of ZZ and MM α1-antitrypsin homozygotes; from tissue; host or cells: plasma of MM homozygotes
Kind of data set: Biochemical competition binding assay (TR-FRET), M α1-antitrypsin. The settings on record: selectivity Z over M. As to the method:
Alpha1-antitrypsin was purified from the plasma of ZZ and MM α1-antitrypsin homozygotes as described in Lomas et al., Biochemistry. 1993; 32:500-8. Recombinant Cys232Ser α1-antitrypsin was expressed and purified as detailed in Irving et al. Methods Enzymol. 2011; 501:421-66 and Haq et al. Biosci Rep. 2013; 33(3):e00046.
A fluorescent derivative of compound 1 was prepared by derivatizing compound 1 at its ring nitrogen atom with an Alexa Fluor 488 label via a short organic linker group.
A serial dilution of test compounds in DMSO was diluted 25-fold with assay buffer, and 2.5 μl of this intermediate dilution transferred to a black, low-volume 384-well microtitre plate (Greiner BioOne; product no. 784076). […]
Plates were sealed and incubated overnight at room temperature, or for 3 days at 4° C. then 6 hours at room temperature. […] The TR-FRET signal was read on an Envision plate reader, by excitation of Terbium at 337 nm and detection of emission at 520 nm and 495 nm.
Dissociation constants (KD) for the affinity of compounds to Z-a1AT or M-a1AT protein were derived from the pIC50 values according to the Cheng-Prusoff equation, taking into account the concentration of fluorescent ligand used in relation to its affinity as determined in independent Fluorescence Polarisation and TR-FRET experiments: KD(compound)=10^−pIC50(compound)/([…]. Compound Association Experiments

Data set [2] can be described thus: Panel of in vitro assays for off-targets predictive of safety liabilities. The source says: In order to investigate suitability of Compound 1 for progression into in vivo studies and the potential for taking forward as a clinical candidate for testing in human, Compound 1 was profiled against a panel of in vitro assays for off-targets considered predictive of potential safety liabilities. […] The measured potency of these marginal activities were at least 10-fold below the cellular activity of Compound 1 at blocking Z α1-antitrypsin polymerisation (pEC50 6.3). Loss of inhibitory activity represents a means by which possible off-target engagement with other serpins can be evaluated. However in contrast to α1-antitrypsin upon incubation with 50 μM Compound 1 the inhibitory activity of the homologues antithrombin, neuroserpin and antichymotrypsin was not affected.

A short description of data set [3]: In vitro clearance in cryopreserved hepatocytes, dog. The data set is classed as in vitro ADME.

T1 sequence (P01009 25-418 V237A/E366K): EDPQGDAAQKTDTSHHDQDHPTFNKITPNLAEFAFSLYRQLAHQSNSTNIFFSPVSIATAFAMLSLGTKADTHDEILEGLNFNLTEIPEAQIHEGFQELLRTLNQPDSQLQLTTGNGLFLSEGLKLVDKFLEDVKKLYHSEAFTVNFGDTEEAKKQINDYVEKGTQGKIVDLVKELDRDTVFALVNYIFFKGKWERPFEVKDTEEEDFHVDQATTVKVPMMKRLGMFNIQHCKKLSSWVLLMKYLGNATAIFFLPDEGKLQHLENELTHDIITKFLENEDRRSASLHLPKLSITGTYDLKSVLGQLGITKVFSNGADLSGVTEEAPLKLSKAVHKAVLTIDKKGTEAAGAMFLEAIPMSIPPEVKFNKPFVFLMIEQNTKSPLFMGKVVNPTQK
T2 sequence (P01009 25-418): as the sequence (P01009 25-418 V237A/E366K) above, with A213V, K342E counted along it

By IC50 is commonly meant the point on the concentration scale where inhibition reaches its midpoint. In turn, `CCC[C@@H](NC(=O)c1cccc2c1CC(=O)N2)[C@@H](O)c1cccc(F)c1C` [Compound 1, N-[(1S,2R)-1-(3-fluoro-2-methylphenyl)-1-hydroxypentan-2-yl]-2-oxo-2,3-dihydro-1H-indole-4-carboxamide] gave an IC50 in data set [1] of 5.01 nM. At M α1-antitrypsin, the “fold lower affinity for plasma-purified wild-type M α1-antitrypsin” value is reported as “at least 50 fold”. In addition, in data set [2], the “activity against off-target panel” value is “inactive against the majority of these targets” and the “marginal activities in off-target panel” value is given as “low level of activity close to the lower limit of sensitivity in 16 assays”. For the same compound, the “potency of marginal off-target activities below cellular activity” value in data set [2] (relative to cellular activity at blocking Z α1-antitrypsin polymerisation) is “at least 10 fold”. In addition, the “in vitro clearance in cryopreserved hepatocytes” value in data set [3] is reported as under 0.65 mL/min/g.
